Earlier results in US4689323A, “Covalently bound heparin--antithrombin-III complex” (Miles Laboratories, Inc., priority 1983, dated 1987).

How the values were obtained:
[1] = tested on: plasma antithrombin-III ("AT-III"); conditions: continuous intravenous infusion, thromboembolic patients
[2] = Scientific Protein Labs., porcine intestines

decrease in plasma antithrombin-III levels [1]: about 35%
Substance: heparin sodium
anticoagulant activity of the starting heparin [2]: 167.7 USP units/mg
